Results published in US20040053896A1, “Pharmaceutically active compound” (priority 2000, published 2004).
Where two headings read alike, the source gives them in different places.

What was measured:
rat hepatocytes = assay: Cytotoxicity assay, chromium-51 leakage from monolayer cultures; type: cell-based; conditions: rat hepatocyte monolayers, 0.012M test material, mean +/- SD, n=5; control 37.61+/-1.56%
Procedure: Activities of supernatants and cells were measured. Chromium-51 leakage is expressed as a percentage of the total activity (medium+cells). Values are mean +/− SD [n=5]. *=P<0.001 CL(CBZ)/CL(CBZ)-Dox and a control (no material added after incubation with chromium-51).

HepG2 cells = assay: In vitro toxicity test by in situ end labelling (ISEL), % of dead cells; type: cell-based; conditions: 4 h incubation
Procedure: Cholyl-lysyl-doxorubicin (VIII) synthesised as described above was subjected to cytotoxicity tests in comparison with free doxorubicin and free cholate using in situ end labelling which enables semi-quantitative measure of apoptosis and necrosis.
HepG2 cells (Cobra American Type Culture Collection) in 24 well plates were used. Doxorubicin, cholate or cholyllysyldoxorubicin (in various amounts up to 0.86 μM) was added in triplicate and incubated for 4 h. The cells were trypsinized off from the well plates, cytospun, and then frozen.
In order to measure cell viability, sections were warmed up to room temperature for 30 minutes, then fixed in acetone for 10 minutes, and then wax was introduced around cells.
An in situ end labelling (ISEL) positive mixture was made up which included buffer (1 ml), dATP (1 μl), dCTP (1 μl), dGTP (1 μl), DiglldUTP (1 μl) and Klenow DNA polymerase (4 μl), and an in situ end labelling negative mixture of buffer (1 ml), dATP (1 μl), dCTP (1 μl), dGTP (1 μl), Digll, 2dUTP and water. (4 μl) was also made up. To each cytospin and coverslip was added 60 μl of the ISEL positive mixture or negative mixture. These were then floated in a water bath at 37° C. for 1 h. The coverslips were then removed and washed 3×5 mins in distilled water, followed by washing in TBS pH 7.5 for 5 mins. Anti digoxigen Alkaline phosphatase diluted 1:200 TBS was added and incubated for 1 h at room temperature and then washed in TBS pH 7.5 for 2.5 mins, followed by further washing in TBS pH 8.2 for another 2.5 mins. A substrate mixture was then made up to include naphthol phosphate (10 mg), NN-dimethylformamide (1 ml), Tris pH 8.2 (49) IM Levamasole (50 μl) and Fast blue (50 mg).
The substrate mixture was added to each cytospin and allowed to develop for 15 mins followed by washing in distilled water and then mounted.

[1] = tested on: 12 human tumour cell lines; assay: Antiproliferative activity in vitro, propidium iodide DNA content; type: cell-based; conditions: for mean IC70: mean over 12 human tumour cell lines, 4 days continuous exposure
Procedure: Cholyl-lysyl-doxorubicin (VIII) was investigated for antiproliferative activity in vitro in 12 human tumour cell lines (including the large cell lung carcinoma H460, the mammary carcinoma cell line MCF7, the uterus carcinoma cell line UXF 1138L and the large cell lung carcinoma LXFL 529L), and was compared to free doxorubicin and cholic acid as controls. 5-20.000 cells/well were plated into 96 wells. After 24 hours, the compounds were added in dose levels ranging from 3 nM to 30 μM (cholyl-lysyl-doxorubicin and cholic acid) and from 0.3 nM to 3 μM (doxorubicin), respectively.

Solubility in solvents = type: physicochemical
[2] = Percentage of dose in liver, heart, urine and blood at 60 min
Procedure: Further tests were performed to estimate the percentage of the dose of the compounds being tested in the liver, heart, urine and blood of Wistar rats.

[3] = for Cumulative biliary excretion, Mean % Dose: Wistar rats; for Biliary excretion, mean % of radioactivity in the dose administered: bolus via jugular vein, 14C-Dox 1 mg/300 μl or 14C-Cpd VIII 2 mg/300 μl, n=6
[4] = Wistar rats, 60 min after injection

| SMILES | Chromium-51 leakage as a percentage of the total activity (medium+cells) (rat hepatocytes) | Mean % of dead cells (HepG2 cells; 0.03 μM) [%] | Mean % of dead cells (HepG2 cells; 0.06 μM) [%] | Mean % of dead cells (HepG2 cells; 0.12 μM) [%] | Mean % of dead cells (HepG2 cells; 0.86 μM) [%] | Mean % of dead cells (HepG2 cells; 0.45 μM) [%] | mean IC70 [1] [µM] | Percentage of dose at 60 min, Mean % dose, Urine [2, 4] [% dose] | Cumulative biliary excretion, Mean % Dose ([3]; cumulative to 0 min) [% Dose] | Cumulative biliary excretion, Mean % Dose ([3]; cumulative to 10 min) [% Dose] | Cumulative biliary excretion, Mean % Dose ([3]; cumulative to 20 min) [% Dose] | Cumulative biliary excretion, Mean % Dose ([3]; cumulative to 30 min) [% Dose] | Cumulative biliary excretion, Mean % Dose ([3]; cumulative to 40 min) [% Dose] | Cumulative biliary excretion, Mean % Dose ([3]; cumulative to 50 min) [% Dose] | Cumulative biliary excretion, Mean % Dose ([3]; cumulative to 60 min) [% Dose] | Biliary excretion, mean % of radioactivity in the dose administered ([3]; bile aliquot at 10 min) [%] | Biliary excretion, mean % of radioactivity in the dose administered ([3]; bile aliquot at 20 min) [%] | Biliary excretion, mean % of radioactivity in the dose administered ([3]; bile aliquot at 30 min) [%] | Biliary excretion, mean % of radioactivity in the dose administered ([3]; bile aliquot at 40 min) [%] | Biliary excretion, mean % of radioactivity in the dose administered ([3]; bile aliquot at 50 min) [%] | other results |
| --- | --- | --- | --- | --- | --- | --- | --- | --- | --- | --- | --- | --- | --- | --- | --- | --- | --- | --- | --- | --- | --- |
| CC(CCC(=O)NC(CCCCNC(=O)OCc1ccccc1)C(=O)O)C1CCC2C3C(O)CC4CC(O)CCC4(C)C3CC(O)C12C (centres unmarked) [CL(CBZ), Cholyllsine-N-ε-CBZ] | 49.01+/−2.57% |  |  |  |  |  |  |  |  |  |  |  |  |  |  |  |  |  |  |  |  |
| COc1cccc2c1C(=O)c1c(O)c3c(c(O)c1C2=O)CC(O)(C(=O)CO)CC3OC1CC(NC(=O)C(CCCCNC(=O)OCc2ccccc2)NC(=O)CCC(C)C2CCC3C4C(O)CC5CC(O)CCC5(C)C4CC(O)C23C)C(O)C(C)O1 (centres unmarked) [CL(CBZ)-Dox, CholyllysylCBZDoxorubicin] | 36.45+/−3.77% |  |  |  |  |  |  |  |  |  |  |  |  |  |  |  |  |  |  |  |  |
| C[C@H](CCC(=O)O)[C@H]1CC[C@H]2[C@@H]3[C@H](O)C[C@@H]4C[C@H](O)CC[C@]4(C)[C@H]3C[C@H](O)[C@]12C [Cholate, cholic acid] |  | 1 | 0 | 1.8 | 1 |  |  |  |  |  |  |  |  |  |  |  |  |  |  |  | antitumour activity in vitro ([1]; 12 human tumour cell lines, 3 nM to 30 μM, 4 days exposure): no antitumour activity |
| COc1cccc2c1C(=O)c1c(O)c3c(c(O)c1C2=O)C[C@@](O)(C(=O)CO)C[C@@H]3O[C@H]1C[C@H](NC(=O)[C@H](CCCCN)NC(=O)CC[C@@H](C)[C@H]2CC[C@H]3[C@@H]4[C@H](O)C[C@@H]5C[C@H](O)CC[C@]5(C)[C@H]4C[C@H](O)[C@]23C)[C@H](O)[C@H](C)O1 [Compound (VIII), Cholyl-Lysyl-Doxorubicin] |  | 7.6 | 10.8 | 20.5 | 96.6 | 49 | 1.3 | 2.2 | 0 | 41.7 | 61.7 | 69.7 | 75.3 | 79.3 | 81.8 | 41.7 | 20 | 8 | 5.6 | 4 | Mean % of dead cells (HepG2 cells; 0.00 μM): 3.3%; Solubility in non-polar solvents (Solubility in solvents; non-polar solvents such as ethoxyethane): insoluble; Solubility in water, methanol and ethanol (Solubility in solvents; water, methanol and ethanol): soluble; Percentage of dose at 60 min, Mean % dose, Blood ([2]; Wistar rats, blood, 60 min after injection): 8.9 % dose; Percentage of dose at 60 min, Mean % dose, Heart ([2]; Wistar rats, heart, 60 min after injection): 0 % dose; Percentage of dose at 60 min, Mean % dose, Liver ([2]; Wistar rats, liver, 60 min after injection): 14.7 % dose; Percentage of dose at 60 min, Mean % dose, Total ([2]; Wistar rats, sum of liver, heart, urine and blood, 60 min): 25.8 % dose; Biliary excretion, mean % of radioactivity in the dose administered ([3]; bile aliquot at 60 min): 2.5%; Biliary excretion, mean % of radioactivity in the dose administered ([3]; time 0 min): 0% |
| COc1cccc2c1C(=O)c1c(O)c3c(c(O)c1C2=O)C[C@@](O)(C(=O)CO)C[C@@H]3O[C@H]1C[C@H](N)[C@H](O)[C@H](C)O1 [Doxorubicin, doxorubicin] |  | 9.4 | 14.9 | 28.9 | 100 | 50 | 0.7 | 4 | 0 | 2.3 | 7 | 9.6 | 11.7 | 12.7 | 13.5 | 2.3 | 4.7 | 2.6 | 2.4 | 1 | Percentage of dose at 60 min, Mean % dose, Blood ([2]; Wistar, rat, in vivo, 60 min): 74.7 % dose; Percentage of dose at 60 min, Mean % dose, Heart ([2]; Wistar, rat, in vivo, 60 min): 10.8 % dose; Percentage of dose at 60 min, Mean % dose, Liver ([2]; Wistar, rat, in vivo, 60 min): 1.9 % dose; Biliary excretion, mean % of radioactivity in the dose administered ([3]; bile aliquot at 60 min): 0.8%; Biliary excretion, mean % of radioactivity in the dose administered ([3]; time 0 min): 0% |
